Experimental data taken from patent EP0086256A1, “1-(2,4-Dichlorophenoxy)-3-(3,4-dimethoxy-beta-phenethylamino)-propan-2-0l, processes for its preparation and pharmaceutical compositions containing it” (VEB Arzneimittelwerk Dresden, priority 1981, dated 1983).
Where two headings read alike, the source gives them in different places.

Key:
β1-Rezeptoren [1] = experiment: Isoproterenol antagonism, intestinal peristalsis; details: Isoproterenolantagonismus, Propranolol = 100; Kaninchen
β1-Rezeptoren [2] = experiment: Isoproterenol antagonism, lipolysis in epididymal fat; details: Isoproterenolantagonismus, Propranolol = 100; Ratte
[3] = tested on: elektrischen Flimmerschwelle; experiment: Antiarrhythmic effect, rise of the electrical fibrillation threshold; type: in vivo, Meerschweinchen; details: for ED50: Cavia porcellus, read-out: ED50, Erhöhung der elektrischen Flimmerschwelle
Excerpt: (§1) Aus diesem Grunde ist die Anwendung von nichtselektiv wirkenden β-Rezeptorenblockern bei Patienten mit obstruktiven Atemwegserkrankungen kontraindiziert. Aber auch die Anwendung der sogenannten kardioselektiven ß-Rezeptorenblocker, z. […] Disposition des Patienten zur Dyspnoe führen bzw. einen Asthmaanfall auslösen können.

β2-Rezeptoren der Gefäße [4] = experiment: Stimulating effects on vascular β2 receptors, comparison with the known 2,5-dichloro compound; details: compared with the 2,4-Dichlor-Verbindung
Excerpt: 1-Phenoxy-3-alkylamino-propanole-(2) sind mehrfach beschrieben worden (DE-PS 2259 489, DE-PS 2213 044, DD-AP 45 360, BE-PS 783 086, NE-PS 6813 616, GD-PS 1148 563, NE-PS 7307 821, DD-AP 93 349, GB-PS 1078 852, BE-PS 746 107). Auch das 1-(2,5-Dichlor-phenoxy )-3-(3,4-dimethoxy-ß-phenethylamino)-propanol-(2) ist bekannt (JA-0 52033 829); es unterscheidet sich in seiner Wirksamkeit gegenüber der erfindungsgemäßen 2,4-Dichlor-Verbindung jedoch dadurch, daß die ausgeprügten stimulierenden Effekte an den β2-Rezeptoren der Gefäße, die eine große Bedeutung für den therapeutischen Einsatz besitzen, fehlen.

[5] = biological target: T1, adrenergen β2-Rezeptoren der Bronchialmuskulatur (Cavia porcellus, UniProt Q8K4Z4); experiment: Tolerance time to asthma-inducing histamine in the conscious guinea pig; type: in vivo, Meerschweinchen; details: read-out: ED50, Verdopplung der Toleranzzeit gegenüber dem asthmaauslösenden Histamin
T1 construct: from tissue; host or cells: conscious guinea pig, whole animal (airways)
T1 sequence (Q8K4Z4 whole entry): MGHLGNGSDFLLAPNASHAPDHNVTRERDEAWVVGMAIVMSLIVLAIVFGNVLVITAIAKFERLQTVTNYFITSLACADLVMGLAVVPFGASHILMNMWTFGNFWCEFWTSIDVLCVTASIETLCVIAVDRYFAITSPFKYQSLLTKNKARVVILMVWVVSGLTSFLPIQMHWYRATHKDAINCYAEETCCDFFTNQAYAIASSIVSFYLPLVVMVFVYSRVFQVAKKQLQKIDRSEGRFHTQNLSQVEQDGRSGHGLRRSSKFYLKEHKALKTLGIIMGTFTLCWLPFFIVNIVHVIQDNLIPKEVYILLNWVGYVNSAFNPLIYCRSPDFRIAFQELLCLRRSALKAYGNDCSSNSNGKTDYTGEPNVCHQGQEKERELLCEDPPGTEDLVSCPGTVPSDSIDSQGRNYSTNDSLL
Excerpt: as §1

β2-Rezeptoren der Gefäße [6] = biological target: T2, β2-Rezeptoren der Gefäße (Felis catus, UniProt Q9TST5); experiment: Influence on the blood-pressure-lowering effect of isoproterenol; type: in vivo; details: Katze
T2 construct: from tissue; host or cells: cat, whole animal (blood vessels)
T2 sequence (Q9TST5 whole entry): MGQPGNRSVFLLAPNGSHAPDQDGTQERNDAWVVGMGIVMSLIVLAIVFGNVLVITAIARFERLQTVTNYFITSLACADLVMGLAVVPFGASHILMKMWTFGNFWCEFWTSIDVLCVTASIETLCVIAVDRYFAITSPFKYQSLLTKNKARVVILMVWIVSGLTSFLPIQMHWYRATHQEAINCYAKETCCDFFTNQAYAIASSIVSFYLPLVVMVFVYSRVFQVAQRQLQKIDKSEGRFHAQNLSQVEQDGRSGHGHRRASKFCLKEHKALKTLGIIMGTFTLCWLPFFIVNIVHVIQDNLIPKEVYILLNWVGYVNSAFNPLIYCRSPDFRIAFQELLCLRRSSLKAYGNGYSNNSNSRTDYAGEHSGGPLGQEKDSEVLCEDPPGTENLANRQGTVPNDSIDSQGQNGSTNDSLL
Excerpt: as §1

β1-Rezeptoren [7] = biological target: T3, β1-Rezeptoren (Felis catus, UniProt Q9TST6); experiment: β1 blockade, heart rate and contractility in the whole animal; type: in vivo; details: Katze; relative to Propranolol
T3 construct: from tissue; host or cells: cat, whole animal (heart)
T3 sequence (Q9TST6 whole entry): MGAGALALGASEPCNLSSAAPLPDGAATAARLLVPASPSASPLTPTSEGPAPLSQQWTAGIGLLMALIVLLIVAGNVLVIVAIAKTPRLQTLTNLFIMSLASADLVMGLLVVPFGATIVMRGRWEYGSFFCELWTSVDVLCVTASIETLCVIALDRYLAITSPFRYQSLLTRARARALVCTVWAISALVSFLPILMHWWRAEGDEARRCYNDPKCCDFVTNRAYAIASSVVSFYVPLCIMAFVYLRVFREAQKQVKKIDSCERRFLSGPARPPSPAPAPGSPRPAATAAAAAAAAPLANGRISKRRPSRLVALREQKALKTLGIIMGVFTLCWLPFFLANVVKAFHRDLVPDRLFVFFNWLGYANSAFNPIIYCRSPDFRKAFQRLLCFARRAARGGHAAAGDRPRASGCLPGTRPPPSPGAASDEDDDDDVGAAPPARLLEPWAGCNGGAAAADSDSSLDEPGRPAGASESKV
Excerpt: as §1

β1-Rezeptoren [8] = biological target: T4, β1-Rezeptoren (Canis lupus familiaris, UniProt P79148); experiment: as above; type: in vivo; details: Hund; relative to Propranolol
T4 construct: from tissue; host or cells: dog, whole animal (heart)
T4 sequence (P79148 whole entry): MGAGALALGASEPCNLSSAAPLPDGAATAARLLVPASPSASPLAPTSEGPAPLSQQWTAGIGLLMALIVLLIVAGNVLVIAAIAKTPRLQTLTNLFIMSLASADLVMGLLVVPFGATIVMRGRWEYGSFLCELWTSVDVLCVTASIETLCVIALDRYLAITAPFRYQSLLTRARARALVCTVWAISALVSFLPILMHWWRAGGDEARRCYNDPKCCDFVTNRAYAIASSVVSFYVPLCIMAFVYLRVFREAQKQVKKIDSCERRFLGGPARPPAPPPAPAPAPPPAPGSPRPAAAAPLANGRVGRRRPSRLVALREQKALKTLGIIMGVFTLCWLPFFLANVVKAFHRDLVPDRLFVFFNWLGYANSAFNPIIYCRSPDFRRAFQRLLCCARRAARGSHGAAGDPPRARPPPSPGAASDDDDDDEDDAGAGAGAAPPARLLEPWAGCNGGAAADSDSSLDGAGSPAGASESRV
Excerpt: as §1

in vivo = details: mouse, ip
Excerpt: as §1

[9] = tested on: Myokardinfarktmodell der Ratte; experiment: Myocardial infarction model, prophylactic oral dosing before coronary ligation; details: relative to Propranolol; orale Applikation von 3,6 und 12 mg/kg I über 28 Tage vor Ligatur der A. coronaria sinistra; CPK, GOT, EKG-Veränderungen, relatives Infarktgewicht
[10] = tested on: Nikotintremor des Meerschweinchens; experiment: Nicotine tremor, antiparkinson effect; type: in vivo, Meerschweinchen; details: compared with Trihexylphenidyl (Parkopan)
Excerpt: as §1

[11] = tested on: spontan hypertensive Ratte; experiment: Antihypertensive effect in the spontaneously hypertensive rat; type: in vivo; details: fold stronger than Propranolol
Excerpt: as §1

[12] = tested on: adrenergen β2-Rezeptoren der Bronchialmuskulatur; experiment: β2 stimulation of bronchial muscle, isolated tracheal muscle and whole animal; details: am isolierten Trachealmuskel als auch im Ganztierversuch
Excerpt: as §1

[13] = biological target: T5, adrenergen β2-Rezeptoren der Bronchialmuskulatur (Canis lupus familiaris, UniProt P54833); experiment: Respiratory minute volume in the anaesthetised dog; type: in vivo; details: narkotisierter Hund; 0,1 mg/kg
T5 construct: from tissue; host or cells: dog, whole animal (blood vessels; bronchial muscle in the anaesthetised dog)
T5 sequence (P54833 whole entry): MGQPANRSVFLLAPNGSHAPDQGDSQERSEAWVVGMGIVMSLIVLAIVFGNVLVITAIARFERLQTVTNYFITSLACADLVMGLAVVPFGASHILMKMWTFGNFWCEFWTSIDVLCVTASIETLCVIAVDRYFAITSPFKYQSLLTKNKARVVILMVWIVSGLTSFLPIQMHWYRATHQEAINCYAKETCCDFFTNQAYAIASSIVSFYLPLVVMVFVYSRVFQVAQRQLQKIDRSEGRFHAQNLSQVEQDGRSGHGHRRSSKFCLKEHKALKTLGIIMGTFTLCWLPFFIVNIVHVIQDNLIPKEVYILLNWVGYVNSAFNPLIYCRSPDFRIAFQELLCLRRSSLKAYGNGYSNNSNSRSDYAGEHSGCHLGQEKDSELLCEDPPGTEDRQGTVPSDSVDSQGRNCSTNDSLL
Excerpt: as §1

β2-Rezeptoren der Gefäße [14] = biological target: T6, β2-Rezeptoren der Gefäße (Canis lupus familiaris, UniProt P54833); experiment: Influence on the blood-pressure-lowering effect of isoproterenol; type: in vivo; details: Hund
T6 construct: from tissue; host or cells: dog, whole animal (blood vessels; bronchial muscle in the anaesthetised dog)
T6 sequence (P54833 whole entry): as above
Excerpt: as §1

CC(C)(C)NCC(O)COc1ccc(NC(=O)NC2CCCCC2)cc1 (stereo not shown) [Talinolol, reference compound]
Stärke der β1-Rezeptorenblockade, Darmperistaltik (β1-Rezeptoren [1]): 35 | Stärke der β1-Rezeptorenblockade, Lipolyse (Epiditymalfett) (β1-Rezeptoren [2]): 96 | ED50 [3]: 0.31 mg/kg

COc1ccc(CCNCC(O)COc2cc(Cl)ccc2Cl)cc1OC (stereo not shown) [1-(2,5-Dichlor-phenoxy)-3-(3,4-dimethoxy-ß-phenethylamino)-propanol-(2)]
stimulierende Effekte an den β2-Rezeptoren der Gefäße (β2-Rezeptoren der Gefäße [4]): fehlen

CC(C)NCC(O)c1ccc(O)c(O)c1 (stereo not shown) [Isoproterenol, reference compound]
ED50 [5]: 0.04 mg/kg

CC(C)NCC(O)COc1cccc2ccccc12 (stereo not shown) [Propranolol, reference compound]
ED50 ([3]; Meerschweinchen): 1.4 mg/kg | blutdrucksenkender Effekt des Isoproterenols (β2-Rezeptoren der Gefäße [6]): aufhebt

COc1ccc(CCNCC(O)COc2ccc(Cl)cc2Cl)cc1OC (stereo not drawn) [I, 1-(2,4-Dichlorphenoxy)-3-(3,4-dimethoxy-β-phenethylamino)-propanol-(2)]
Wirksamkeit an den β1-Rezeptoren (Herzfrequenz und Kontralctilität am Ganztier) (β1-Rezeptoren [7]): nur halb so wirksam wie Propranolol | Wirksamkeit an den β1-Rezeptoren (Herzfrequenz und Kontralctilität am Ganztier) (β1-Rezeptoren [8]): nur halb so wirksam wie Propranolol | LD50 (in vivo): 141 mg/kg | Stärke der β1-Rezeptorenblockade, Darmperistaltik (β1-Rezeptoren [1]): 100 | kardioprotektive Wirkung [9]: zweimal | Stärke der β1-Rezeptorenblockade, Lipolyse (Epiditymalfett) (β1-Rezeptoren [2]): 220 | Antiparkinsonwirkung [10]: etwa die gleiche Antiparkinsonwirkung wie Trihexylphenidyl | antihypertensiver Effekt [11]: ~10 | Stimulation der adrenergen β2-Rezeptoren der Bronchialmuskulatur [12]: nachweisen läßt | ED50 ([3]; Meerschweinchen): 0.22 mg/kg | Atemzeitvolumen [13]: isoproterenolähnlichen Vergrößerung des Atemzeitvolumens | blutdrucksenkender Effekt des Isoproterenols (β2-Rezeptoren der Gefäße [6]): Verstärkung der Isoproterenolwirkung | blutdrucksenkender Effekt des Isoproterenols (β2-Rezeptoren der Gefäße [14]): Verstärkung der Isoproterenolwirkung | ED50 [5]: 0.76 mg/kg

Tachmalin
ED50, Erhöhung der elektrischen Flimmerschwelle ([3]; Meerschweinchen): 0,71 mg/kg
